{"source": "patent US20050287594A1", "about": "(priority 2000, published 2005)", "key": {"rat testis proteome": {"tested_on": "rat testis proteome", "type": "binding"}, "cALDH-I [1]": {"target": "T1, cALDH-I (Rattus norvegicus, UniProt P51647)", "T1 construct": "His tag (pTrcHis vector) (N); made in house; host or cells: E. coli BL-21", "T1 sequence (P51647 1-501)": "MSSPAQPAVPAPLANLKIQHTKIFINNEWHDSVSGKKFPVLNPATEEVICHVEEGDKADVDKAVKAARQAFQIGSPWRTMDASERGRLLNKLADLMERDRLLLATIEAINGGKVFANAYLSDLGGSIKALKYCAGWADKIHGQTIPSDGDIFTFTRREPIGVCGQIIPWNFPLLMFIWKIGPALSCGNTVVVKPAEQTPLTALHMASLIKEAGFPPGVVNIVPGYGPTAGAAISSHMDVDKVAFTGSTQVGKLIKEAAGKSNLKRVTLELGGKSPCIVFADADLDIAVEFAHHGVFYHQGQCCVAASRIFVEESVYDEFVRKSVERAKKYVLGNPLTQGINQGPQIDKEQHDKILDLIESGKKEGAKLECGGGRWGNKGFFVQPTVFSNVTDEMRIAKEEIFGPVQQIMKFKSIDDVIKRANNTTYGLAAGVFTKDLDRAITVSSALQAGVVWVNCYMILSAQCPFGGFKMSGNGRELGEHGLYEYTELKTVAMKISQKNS", "type": "binding"}, "cALDH-I [2]": {"target": "T1, cALDH-I", "type": "biochemical"}, "cALDH-I [3]": {"target": "T1, cALDH-I", "settings": "read-out: Michealis constant Km, reported literature value; cited from earlier work"}, "[4]": {"settings": "pH 8"}}, "note": "Where two headings read alike, the source gives them in different places.", "data": [{"compound": "O=C(CCCCCCCCCOS(=O)(=O)c1cccc2cccnc12)NCCCCCNC(=O)CCCCC1SCC2NC(=O)NC21", "note": "(stereo not drawn) [sulfonate 9, 10-((8-Quinolinesulfonyl)oxo)-N-biotinamidopentyldecanamide]", "values": [{"measurement": "specific (heat-sensitive) proteome reactivity", "setting": "rat testis proteome", "value": "reacted specifically with a 55 kDa protein, as well as two additional proteins poorly labeled by the other reagents"}]}, {"compound": "O=C(CCCCCCCCCOS(=O)(=O)c1ccc([N+](=O)[O-])cc1)NCCCCCNC(=O)CCCCC1SCC2NC(=O)NC21", "note": "(stereo not drawn) [sulfonate 8, 10-((4-Nitrobenzenesulfonyl)oxo)-N-biotinamidopentyldecanamide]", "values": [{"measurement": "specific (heat-sensitive) proteome reactivity", "setting": "rat testis proteome", "value": "reacted specifically with a 55 kDa protein, as well as two additional proteins poorly labeled by the other reagents"}]}, {"compound": "O=C(CCCCCCCCCOS(=O)(=O)c1cccs1)NCCCCCNC(=O)CCCCC1SCC2NC(=O)NC21", "note": "(stereo not drawn) [sulfonate 11]", "values": [{"measurement": "specific (heat-sensitive) proteome reactivity", "setting": "rat testis proteome", "value": "reacted specifically with a 55 kDa protein, as well as two additional proteins poorly labeled by the other reagents"}]}, {"compound": "O=C(CCCCCCCCCOS(=O)(=O)c1ccccn1)NCCCCCNC(=O)CCCC[C@@H]1SC[C@@H]2NC(=O)N[C@@H]21", "note": "[sulfonate 1, 10-((2-pyridylsulfonyl)oxo)-N-biotinamidopentyldecanamide]", "values": [{"measurement": "specific (heat-sensitive) proteome reactivity", "setting": "rat testis proteome", "value": "labeled a 55 kDa protein and a 31 kDa protein"}]}, {"compound": "O=C(CCCCCCCCCOS(=O)(=O)c1ccc2ccccc2c1)NCCCCCNC(=O)CCCCC1SCC2NC(=O)NC21", "note": "(stereo not drawn) [sulfonate 10, 10-((2-Naphthalenesulfonyl)oxo)-N-biotinamidopentyldecanamide]", "values": [{"measurement": "specific (heat-sensitive) proteome reactivity", "setting": "rat testis proteome", "value": "specifically labeled one 55 kDa protein"}]}, {"compound": "CCOS(=O)(=O)c1ccccn1", "note": "[sulfonate 16, 1-(2-Pyridylsulfonyl)oxo-ethane]", "values": [{"measurement": "blocking of the labeling of cALDH-I by 1", "setting": "cALDH-I [1]", "value": "did not block the labeling of cALDH-I by 1"}, {"measurement": "% Activity Remaining", "setting": "cALDH-I [2]", "value": 42, "unit": "%"}, {"measurement": "Kobs/[I]", "setting": "cALDH-I [2]", "value": 0.00417, "unit": "M⁻¹ s⁻¹"}, {"measurement": "cALDH-I inactivation (in words)", "setting": "cALDH-I [2]", "value": "weak"}, {"measurement": "second order inhibition rate constant, times lower than that determined for 15", "setting": "cALDH-I [2]", "value": 40000, "unit": "times"}]}, {"compound": "CS(=O)(=O)OCCCCCCCCCC(=O)NCCCCCNC(=O)CCCCC1SCC2NC(=O)NC21", "note": "(stereo not drawn) [sulfonate 5, 10-((Methylsulfonyl)oxo)-N-biotinamidopentyldecanamide]", "values": [{"measurement": "nonspecific (heat-insensitive) reactivity with the preheated proteome", "setting": "rat testis proteome", "value": "showed significant additional reactivity with the preheated proteome"}, {"measurement": "specific (heat-sensitive) proteome reactivity", "setting": "rat testis proteome", "value": "labeled four members of the proteome in a heat-sensitive manner"}]}, {"compound": "CCC=O", "note": "[propionaldehyde, reference compound]", "values": [{"measurement": "Km", "setting": "cALDH-I [2]; read-out: Michealis constant Km", "value": 4.2, "unit": "µM"}, {"measurement": "Km", "setting": "cALDH-I [3]", "value": 6.5, "unit": "µM"}]}, {"compound": "CCCCCCCCOS(=O)(=O)c1ccccn1", "note": "[Sulfonate 15, 1-(2-Pyridylsulfonyl)oxo-octane]", "values": [{"measurement": "blocking of the labeling of cALDH-I by 1", "setting": "cALDH-I [1]", "value": "effectively blocked the labeling of cALDH-I by 1"}, {"measurement": "average Kobs/[I]", "setting": "cALDH-I [2]", "value": "(9.7+1.8)×10^3 M^−min^−"}, {"measurement": "cALDH-I inactivation (in words)", "setting": "cALDH-I [2]", "value": "completely inactivated"}, {"measurement": "effect of NAD^+ on inactivation of cALDH-I by 15", "setting": "cALDH-I [2]", "value": "completely protected the enzyme from inactivation"}, {"measurement": "stability in reaction buffer", "setting": "[4]", "value": "stable to the assay conditions employed"}]}, {"compound": "COc1ccc(S(=O)(=O)OCCCCCCCCCC(=O)NCCCCCNC(=O)CCCCC2SCC3NC(=O)NC32)cc1", "note": "(stereo not drawn) [sulfonate 4, 10-((4-Methoxybenzenesulfonyl)oxo)-N-biotinamidopentyldecanamide]", "values": [{"measurement": "nonspecific (heat-insensitive) reactivity with the preheated proteome", "setting": "rat testis proteome", "value": "showed significant additional reactivity with the preheated proteome"}, {"measurement": "specific (heat-sensitive) proteome reactivity", "setting": "rat testis proteome", "value": "labeled four members of the proteome in a heat-sensitive manner"}]}, {"compound": "CCCCCCCCOS(C)(=O)=O", "note": "[sulfonate 17, 1-(Methanesulfonyl)oxo-octane]", "values": [{"measurement": "blocking of the labeling of cALDH-I by 1", "setting": "cALDH-I [1]", "value": "did not block the labeling of cALDH-I by 1"}, {"measurement": "% Activity Remaining", "setting": "cALDH-I [2]", "value": 100, "unit": "%"}, {"measurement": "cALDH-I inactivation (in words)", "setting": "cALDH-I [2]", "value": "no inhibition"}]}, {"compound": "CCCCS(=O)(=O)OCCCCCCCCCC(=O)NCCCCCNC(=O)CCCCC1SCC2NC(=O)NC21", "note": "(stereo not drawn) [sulfonate 6, 10-((Butylsulfonyl)oxo)-N-biontinamidopentyldecanamide]", "values": [{"measurement": "specific (heat-sensitive) proteome reactivity", "setting": "rat testis proteome", "value": "specifically labeled one 55 kDa protein"}]}, {"compound": "O=C(CCCCCCCCCOS(=O)(=O)c1ccccc1)NCCCCCNC(=O)CCCCC1SCC2NC(=O)NC21", "note": "(stereo not drawn) [sulfonate 2, 10-((Benzenesulfonyl)oxo)-N-biotinamidopentyldecanamide]", "values": [{"measurement": "specific (heat-sensitive) proteome reactivity", "setting": "rat testis proteome", "value": "reacted with three of the four proteins labeled by 4 and 5"}]}, {"compound": "Cc1ccc(S(=O)(=O)OCCCCCCCCCC(=O)NCCCCCNC(=O)CCCCC2SCC3NC(=O)NC32)cc1", "note": "(stereo not drawn) [sulfonate 3, 10-((p-Toluenesulfonyl)oxo)-N-biotinamidopentyldecanamide]", "values": [{"measurement": "specific (heat-sensitive) proteome reactivity", "setting": "rat testis proteome", "value": "specifically labeled one 55 kDa protein"}]}]}
